ChEMBL document CHEMBL1144403, “Novel immunomodulator FTY720 is phosphorylated in rats and humans to form a single stereoisomer. Identification, chemical proof, and biological characterization of the biologically active species and its enantiomer” (J Med Chem, 2005)

Tests used:
Type in all cases: functional, cell-based
[1] = target: T1, Sphingosine 1-phosphate receptor 4 (Homo sapiens, UniProt O95977); test: Agonism of human S1P-4 receptor expressed in CHO cells, 90-120 min in pH 7.4 using [35S]GTP-gamma-S as radioligand
T1 sequence (O95977 whole entry): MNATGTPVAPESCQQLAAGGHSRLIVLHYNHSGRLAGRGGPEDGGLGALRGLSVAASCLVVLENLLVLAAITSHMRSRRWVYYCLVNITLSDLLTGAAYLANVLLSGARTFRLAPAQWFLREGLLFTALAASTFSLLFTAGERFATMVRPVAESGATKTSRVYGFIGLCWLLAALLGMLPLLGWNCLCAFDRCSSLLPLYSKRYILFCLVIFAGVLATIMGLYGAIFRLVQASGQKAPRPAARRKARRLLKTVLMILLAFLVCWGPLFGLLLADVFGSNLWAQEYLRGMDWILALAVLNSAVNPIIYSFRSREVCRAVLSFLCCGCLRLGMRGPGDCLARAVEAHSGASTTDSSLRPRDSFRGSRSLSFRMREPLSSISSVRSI

[2] = target: Sphingosine 1-phosphate receptor 2 (Homo sapiens, UniProt O95136); test: Agonism of human S1P-2 receptor expressed in CHO cells, 90-120 min in pH 7.4 using [35S]GTP-gamma-S as radioligand
Chain of Sphingosine 1-phosphate receptor 2 (O95136 whole entry): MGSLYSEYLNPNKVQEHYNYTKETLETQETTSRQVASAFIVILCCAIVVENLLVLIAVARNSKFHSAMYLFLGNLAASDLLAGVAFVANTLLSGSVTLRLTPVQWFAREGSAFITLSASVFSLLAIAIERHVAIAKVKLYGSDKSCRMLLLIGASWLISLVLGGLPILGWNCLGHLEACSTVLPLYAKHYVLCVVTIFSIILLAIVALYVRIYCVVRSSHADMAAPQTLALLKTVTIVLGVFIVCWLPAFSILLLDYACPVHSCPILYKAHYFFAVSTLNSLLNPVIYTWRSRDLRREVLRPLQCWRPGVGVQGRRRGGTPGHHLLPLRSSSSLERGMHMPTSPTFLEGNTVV

[3] = target: Sphingosine 1-phosphate receptor 3 (Homo sapiens, UniProt Q99500); test: Agonism of human S1P-3 receptor expressed in CHO cells, 90-120 min in pH 7.4 using [35S]GTP-gamma-S as radioligand
Chain of Sphingosine 1-phosphate receptor 3 (Q99500 whole entry): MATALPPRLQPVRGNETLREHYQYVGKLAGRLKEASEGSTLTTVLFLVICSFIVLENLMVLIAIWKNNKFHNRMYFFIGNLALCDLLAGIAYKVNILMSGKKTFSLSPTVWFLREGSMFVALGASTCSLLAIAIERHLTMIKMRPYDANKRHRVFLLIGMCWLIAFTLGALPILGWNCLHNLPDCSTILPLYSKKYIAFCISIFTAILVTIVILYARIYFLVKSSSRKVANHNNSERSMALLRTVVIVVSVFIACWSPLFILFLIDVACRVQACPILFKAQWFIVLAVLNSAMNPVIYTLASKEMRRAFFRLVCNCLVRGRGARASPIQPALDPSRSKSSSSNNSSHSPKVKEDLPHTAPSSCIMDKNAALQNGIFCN

[4] = target: Sphingosine 1-phosphate receptor 5 (Homo sapiens, UniProt Q9H228); test: Agonism of human S1P-5 receptor expressed in CHO cells, 90-120 min in pH 7.4 using [35S]GTP-gamma-S as radioligand
Chain of Sphingosine 1-phosphate receptor 5 (Q9H228 whole entry): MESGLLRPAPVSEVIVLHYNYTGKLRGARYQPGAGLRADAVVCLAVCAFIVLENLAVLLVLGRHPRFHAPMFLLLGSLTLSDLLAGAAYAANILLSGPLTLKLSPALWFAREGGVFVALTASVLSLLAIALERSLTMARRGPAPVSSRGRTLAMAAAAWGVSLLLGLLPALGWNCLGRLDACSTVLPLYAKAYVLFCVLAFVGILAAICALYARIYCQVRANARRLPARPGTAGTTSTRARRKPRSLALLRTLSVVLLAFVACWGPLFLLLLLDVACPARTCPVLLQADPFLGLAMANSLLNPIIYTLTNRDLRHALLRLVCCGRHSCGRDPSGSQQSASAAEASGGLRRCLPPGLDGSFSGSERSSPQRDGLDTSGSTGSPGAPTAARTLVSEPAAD

EC50 [1] [nM] | EC50 [2] [nM] | EC50 [3] [nM] | EC50 [4] [nM] | Structure (SMILES)
80.1 |  |  |  | CCCCCCCCc1ccc(CC[C@@](N)(CO)COP(=O)(O)O)cc1
2.4 |  |  |  | CCCCCCCCc1ccc(CCC(N)(CO)COP(=O)(O)O)cc1 (racemic)
> 10000 | > 10000 | > 10000 | > 10000 | CCCCCCCCc1ccc(CCC(N)(CO)CO)cc1 [FINGOLIMOD]
0.6 |  |  |  | CCCCCCCCc1ccc(CC[C@](N)(CO)COP(=O)(O)O)cc1 [FTY720-P]
